Each structure is given as a SMILES string.

The target of this assay is T1, ALDH20158 (Crocus sativus, UniProt A0A3G1GZK3).
T1 sequence (A0A3G1GZK3 31-535): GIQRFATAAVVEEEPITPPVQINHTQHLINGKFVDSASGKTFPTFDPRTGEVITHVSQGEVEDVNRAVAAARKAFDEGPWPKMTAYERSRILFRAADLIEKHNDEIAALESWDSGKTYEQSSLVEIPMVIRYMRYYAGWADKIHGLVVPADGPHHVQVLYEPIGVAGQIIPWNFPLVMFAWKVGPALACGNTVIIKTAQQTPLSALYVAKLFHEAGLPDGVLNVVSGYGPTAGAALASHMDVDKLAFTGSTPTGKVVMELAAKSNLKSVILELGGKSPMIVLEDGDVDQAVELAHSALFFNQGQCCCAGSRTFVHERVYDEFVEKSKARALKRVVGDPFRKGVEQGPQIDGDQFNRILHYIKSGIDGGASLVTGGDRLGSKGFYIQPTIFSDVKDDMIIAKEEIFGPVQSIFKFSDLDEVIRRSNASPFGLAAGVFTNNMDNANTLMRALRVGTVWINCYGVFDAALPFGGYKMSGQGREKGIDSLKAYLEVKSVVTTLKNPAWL
Kind of assay: LC-APCI(+)-MS of crocetin formed by crude extract of E. coli expressing the enzyme. The class given is biochemical. The note with it: NAD+, pyrophosphate buffer, NaCl, pH 7.5, 28 C, 30 min; empty-vector extract as control.

Consider `C\C(C=O)=C/C=C/C(C)=C/C=C/C=C(C)/C=C/C=C(\C)C=O` [crocetin dialdehyde], for which the “LC-APCI(+)-MS of crocetin formed by crude extract of E. coli expressing the enzy” value is “the same results were obtained using ALDH20158 and ALDH3898”.

Source of the values: publication PMC5983644, “Expression and Interaction Analysis among Saffron ALDHs and Crocetin Dialdehyde” (International Journal of Molecular Sciences, 2018).
